Laboratory results reported in patent publication US20240376085A1 (Janssen Pharmaceutica NV, priority 2021, published 2024).

How the values were obtained:
[1] = test system: IL-17A-induced G-CSF production in human normal keratinocyte (NHK); assay: NHK assay: IL-17A-induced G-CSF production in normal human keratinocytes; assay type: cell-based; conditions: IL-17A 5 ng/mL, 24 h, average if tested more than once
In short: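 Stimulus rhIL-17A 5 ng/mL final, premixed 1 h rt with compound; adult NHK, 5% FBS, 0.2% DMSO. Viability by CellTiter-Glo vs DMSO.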

IL-17A : IL-17RA binding = molecular target: T1, IL-17A : IL-17RA binding (Homo sapiens, UniProt Q16552, K93Q); assay: IL-17A(FLAG-tagged):IL-17RA(His-tagged) binding disruption Eu-HTRF assay, Protocol 1; conditions: FLAG-IL-17A 2.5 nM at 2x final concentration; average if tested more than once
T1 construct: Name: IL-17A-Flag
T1 sequence (Q16552 with tags, fused parts or gaps K93Q): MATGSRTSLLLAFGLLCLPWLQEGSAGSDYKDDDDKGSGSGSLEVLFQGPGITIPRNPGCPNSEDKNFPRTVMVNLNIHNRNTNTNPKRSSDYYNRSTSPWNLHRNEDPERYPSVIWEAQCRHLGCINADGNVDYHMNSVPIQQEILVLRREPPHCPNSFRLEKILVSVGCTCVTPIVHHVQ
In short: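 IC50 came from a one-site competition fit of the acceptor/donor (665/620 nm) HTRF ratio. His-tagged IL-17RA, Eu-anti-FLAG and D2-anti-His were added after a 1 h rt compound preincubation with FLAG-tagged IL-17A dimer in PBS/0.01% Triton X-100, followed by 2 h at rt before reading.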

Row | Compound | IC50 [1] [nM] | IC50 (IL-17A : IL-17RA binding) [nM] | IC50 ([1]; Homo sapiens, Keratinocyte) [nM]
1 | CC(CC(=O)N[C@@H](c1ccc2nc([C@H](CC(C)(C)C(F)(F)F)NC(=O)c3nonc3C3CC3)[nH]c2c1)C1CC1)C(F)(F)F (single isomer, unassigned) [Example 182, 4-Cyclopropyl-N—((S)-1-(6-((R)-cyclopropyl((S*)-4,4,4-trifluoro-3-methylbutanamido)methyl)-1H-benzo[d]imidazol-2-yl)-4,4,4-trifluoro-3,3-dimethylbutyl)-1,2,5-oxadiazole-3-carboxamide] | < 50 | < 50 | 
2 | Cc1c(C(=O)N[C@H](c2nc3cc([C@@H](C)NC(=O)CCC(F)(F)F)ccc3[nH]2)C2CCC(F)(F)CC2)cnn1CCC(F)(F)F [Example 5, N—[(S)-(4,4-Difluorocyclohexyl)-[6-[(1R)-1-(4,4,4-trifluorobutanoylamino)ethyl]-1H-benzimidazol-2-yl]methyl]-5-methyl-1-(3,3,3-trifluoropropyl)pyrazole-4-carboxamide] |  | > 100 | > 100
3 | CC(C)n1nccc1C(=O)N[C@H](c1nc2cc([C@@H](C)NC(=O)CC(C(F)(F)F)C(F)(F)F)ccc2[nH]1)C1CCC(F)(F)CC1 [Example 125, N—((S)-(4,4-Difluorocyclohexyl)(5-((R)-1-(4,4,4-trifluoro-3-(trifluoromethyl)butanamido)ethyl)-1H-benzo[d]imidazol-2-yl)methyl)-1-isopropyl-1H-pyrazole-5-carboxamide] |  | > 100 | < 50
4 | Cc1nonc1C(=O)N[C@H](c1nc2cc([C@@H](C)NC(=O)CCC(F)(F)F)ccc2[nH]1)[C@@H]1CCCC(F)(F)C1 [Example 264, N—((S)—((R)-3,3-Difluorocyclohexyl)(5-((R)-1-(4,4,4-trifluorobutanamido)ethyl)-1H-benzo[d]imidazol-2-yl)methyl)-4-methyl-1,2,5-oxadiazole-3-carboxamide] |  | < 50 | > 100
5 | C[C@@H](NC(=O)CCC(F)(F)F)c1ccc2[nH]c([C@@H](NC(=O)c3cnnn3CCC3CC3)C3CCC(F)(F)CC3)nc2c1 [Example 13, 3-(2-Cyclopropylethyl)-N—[(S)-(4,4-difluorocyclohexyl)-[6-[(1R)-1-(4,4,4-trifluorobutanoylamino)ethyl]-1H-benzimidazol-2-yl]methyl]triazole-4-carboxamide] |  | > 100 | > 100
6 | C[C@@H](NC(=O)CCC(F)(F)F)c1ccc2[nH]c([C@@H](NC(=O)C3(F)CC3)C3CCC(F)(F)CC3)nc2c1 [Example 96, N—((S)-(4,4-Difluorocyclohexyl)(5-((R)-1-(4,4,4-trifluorobutanamido)ethyl)-1H-benzo[d]imidazol-2-yl)methyl)-1-fluorocyclopropane-1-carboxamide] |  | > 100 | > 100
7 | CC(C)CC(NC(=O)CCC(F)(F)F)c1ccc2[nH]c([C@@H](NC(=O)c3ccnn3C)C3CCC(F)(F)CC3)nc2c1 (single isomer, unassigned) [Example 49, N—((S)-(4,4-Difluorocyclohexyl)(5-((R*)-3-methyl-1-(4,4,4-trifluorobutanamido)butyl)-1H-benzo[d]imidazol-2-yl)methyl)-1-methyl-1H-pyrazole-5-carboxamide] | < 50 | > 100 | 
8 | C[C@@H](NC(=O)CCC(F)(F)F)c1ccc2[nH]c([C@@H](NC(=O)c3cnn(CCCC(F)(F)F)n3)C3CCC(F)(F)CC3)nc2c1 [Example 19, N—[(S)-(4,4-Difluorocyclohexyl)-[6-[(1R)-1-(4,4,4-trifluorobutanoylamino)ethyl]-1H-benzimidazol-2-yl]methyl]-2-(4,4,4-trifluorobutyl)triazole-4-carboxamide] |  | > 100 | 50 to 100
9 | CCCC(NC(=O)CCC(F)(F)F)c1ccc2[nH]c([C@@H](NC(=O)c3ccnn3C)C3CCC(F)(F)CC3)nc2c1 (single isomer, unassigned) [Example 50, N—((S)-(4,4-Difluorocyclohexyl)(5-((S*)-1-(4,4,4-trifluorobutanamido)butyl)-1H-benzo[d]imidazol-2-yl)methyl)-1-methyl-1H-pyrazole-5-carboxamide] |  | > 100 | > 100
10 | Cc1nonc1C(=O)N[C@H](c1nc2cc([C@H](NC(=O)CC(C)C(F)(F)F)C3CC3)ccc2[nH]1)[C@@H]1CCCC(F)(F)C1 (single isomer, unassigned) [Example 258, N—((S)-(5-((R)-Cyclopropyl((R*)-4,4,4-trifluoro-3-methylbutanamido)methyl)-1H-benzo[d]imidazol-2-yl)((R)-3,3-difluorocyclohexyl)methyl)-4-methyl-1,2,5-oxadiazole-3-carboxamide] |  | 50 to 100 | 50 to 100
11 | C[C@@H](NC(=O)CCC(F)(F)F)c1ccc2[nH]c([C@@H](NC(=O)[C@H]3C[C@@H]3C(F)(F)F)C3CCC(F)(F)CC3)nc2c1 (relative stereo) [Example 105, trans-(1S*,2S*)—N—((S)-(4,4-Difluorocyclohexyl)(5-((R)-1-(4,4,4-trifluorobutanamido)ethyl)-1H-benzo[d]imidazol-2-yl)methyl)-2-(trifluoromethyl)cyclopropane-1-carboxamide] |  | > 100 | > 100
12 | C[C@@H](NC(=O)CC(C(F)(F)F)C(F)(F)F)c1ccc2[nH]c([C@@H](NC(=O)c3ccnn3CC(F)(F)F)C3CCC(F)(F)CC3)nc2c1 [Example 129, N—((S)-(4,4-Difluorocyclohexyl)(5-((R)-1-(4,4,4-trifluoro-3-(trifluoromethyl)butanamido)ethyl)-1H-benzo[d]imidazol-2-yl)methyl)-1-(2,2,2-trifluoroethyl)-1H-pyrazole-5-carboxamide] |  | > 100 | 50 to 100
13 | C[C@@H](NC(=O)CCC(F)(F)F)c1ccc2[nH]c([C@@H](NC(=O)c3coc(CCC(F)(F)F)n3)C3CCC(F)(F)CC3)nc2c1 [Example 225, N—((S)-(4,4-Difluorocyclohexyl)(5-((R)-1-(4,4,4-trifluorobutanamido)ethyl)-1H-benzo[d]imidazol-2-yl)methyl)-2-(3,3,3-trifluoropropyl)oxazole-4-carboxamide] |  | > 100 | > 100
14 | Cn1nccc1C(=O)N[C@H](c1nc2cc(C(CC3CCC3)NC(=O)CCC(F)(F)F)ccc2[nH]1)C1CCC(F)(F)CC1 (single isomer, unassigned) [Example 47, N—((S)-(5-((R*)-2-Cyclobutyl-1-(4,4,4-trifluorobutanamido)ethyl)-1H-benzo[d]imidazol-2-yl)(4,4-difluorocyclohexyl)methyl)-1-methyl-1H-pyrazole-5-carboxamide] | < 50 | > 100 | 
15 | Cn1nccc1C(=O)N[C@H](c1nc2cc(C(NC(=O)CCC(F)(F)F)C3CC3)ccc2[nH]1)C1CCC(F)(F)CC1 (single isomer, unassigned) [Example 54, N—((S)-(5-((S*)-Cyclopropyl(4,4,4-trifluorobutanamido)methyl)-1H-benzo[d]imidazol-2-yl)(4,4-difluorocyclohexyl)methyl)-1-methyl-1H-pyrazole-5-carboxamide] |  | > 100 | < 50
16 | COCC(NC(=O)CC1CC(F)(F)C1)c1ccc2[nH]c([C@H](COC(C)(C)C(F)(F)F)NC(=O)c3nonc3C3CC3)nc2c1 (single isomer, unassigned) [Example 165, 4-Cyclopropyl-N—((R)-1-(5-((S*)-1-(2-(3,3-difluorocyclobutyl)acetamido)-2-methoxyethyl)-1H-benzo[d]imidazol-2-yl)-2-((1,1,1-trifluoro-2-methylpropan-2-yl)oxy)ethyl)-1,2,5-oxadiazole-3-carboxamide] |  | > 100 | > 100
17 | COCCn1cc(C(=O)N[C@H](c2nc3cc([C@@H](C)NC(=O)CCC(F)(F)F)ccc3[nH]2)C2CCC(F)(F)CC2)nn1 [Example 16, N—[(S)-(4,4-Difluorocyclohexyl)-[6-[(1R)-1-(4,4,4-trifluorobutanoylamino)ethyl]-1H-benzimidazol-2-yl]methyl]-1-(2-methoxyethyl)triazole-4-carboxamide] |  | > 100 | > 100
18 | O=C(N[C@H](c1nc2cc([C@H](NC(=O)C(F)(F)CC3CC3)C3CC3)ccc2[nH]1)C1CCC(F)(F)CC1)c1nonc1C1CC1 [Example 147, 4-Cyclopropyl-N—((S)-(5-((R)-cyclopropyl(3-cyclopropyl-2,2-difluoropropanamido)methyl)-1H-benzo[d]imidazol-2-yl)(4,4-difluorocyclohexyl)methyl)-1,2,5-oxadiazole-3-carboxamide] |  | 50 to 100 | < 50
19 | O=C(CC1CC(F)(F)C1)N[C@@H](c1ccc2nc([C@@H](NC(=O)c3nonc3C3CC3)[C@@H]3C[C@@H]4[C@H](C3)C4(F)F)[nH]c2c1)C1CC1 [Example 239, 4-Cyclopropyl-N—((S)-(6-((R)-cyclopropyl(2-(3,3-difluorocyclobutyl)acetamido)methyl)-1H-benzo[d]imidazol-2-yl)((1R,3s,5S)-6,6-difluorobicyclo[3.1.0]hexan-3-yl)methyl)-1,2,5-oxadiazole-3-carboxamide] |  | < 50 | < 50
20 | CC(Cn1ncc(C(=O)N[C@H](c2nc3ccc([C@@H](C)NC(=O)CCC(F)(F)F)cc3[nH]2)C2CCC(F)(F)CC2)n1)C(F)(F)F (single isomer, unassigned) [Example 69, N—((S)-(4,4-Difluorocyclohexyl)(6-((R)-1-(4,4,4-trifluorobutanamido)ethyl)-1H-benzo[d]imidazol-2-yl)methyl)-2-((R*)-3,3,3-trifluoro-2-methylpropyl)-2H-1,2,3-triazole-4-carboxamide] |  | > 100 | > 100
